From US9695176B2, “Substituted imidazo[1,5-a]pyrazines as CGRP receptor antagonists” (BRISTOL-MYERS SQUIBB COMPANY, priority 2012, dated 2017)

Target: Human CGRP Receptor (Homo sapiens (Human), UniProt O60894+Q16602)
Test: Radioligand binding assay, [125I]-CGRP displacement on SK-N-MC membranes
Procedure: Tissue Culture. SK-N-MC cells were grown at 37° C. in 5% CO2 as a monolayer in medium consisting of MEM with Earle's salts and L-glutamine (Invitrogen) supplemented with 10% fetal bovine serum (Invitrogen).
Membrane Preparation. Crude membranes were prepared from SK-N-MC cells expressing CGRP receptors. […] The cells were transferred from plates to polypropylene tubes (16×100 mm) and homogenized using a polytron. Homogenates were centrifuged at 32,000×g for 30 min. The pellets were resuspended in cold hypotonic lysis buffer with 0.1% mammalian protease inhibitor cocktail (Sigma) and assayed for protein concentration. The SK-N-MC homogenate was aliquoted and stored at −80° C.
Radioligand Binding Assay. The compounds of invention were solubilized and carried through serial dilutions using 100% DMSO. Aliquots from the compound serial dilutions were further diluted 25 fold into assay buffer (50 mM Tris-Cl pH 7.5, 5 mM MgCl2, 0.005% Triton X-100) and transferred (volume 50 μl) into 96 well assay plates. […] SK-N-MC membranes were thawed, diluted in assay buffer with fresh 0.1% mammalian protease inhibitor cocktail (Sigma), and re-homogenized. SK-N-MC homogenate (7 μg/well) was added in a volume of 100 μl. The assay plates were then incubated at room temperature for 2 h. Assays were stopped by addition of excess cold wash buffer (50 mM Tris-Cl pH 7.5, 0.1% BSA) immediately followed by filtration over glass fiber filters (Whatman GF/B) previously soaked in 0.5% PEI. Non-specific binding was defined with 1 μM beta-CGRP (Bachem). Protein bound radioactivity was determined using a gamma or scintillation counter. […] All compounds of invention were evaluated in at least two separate experiments.

Human CGRP Receptor, sequence (Q16602 23-461): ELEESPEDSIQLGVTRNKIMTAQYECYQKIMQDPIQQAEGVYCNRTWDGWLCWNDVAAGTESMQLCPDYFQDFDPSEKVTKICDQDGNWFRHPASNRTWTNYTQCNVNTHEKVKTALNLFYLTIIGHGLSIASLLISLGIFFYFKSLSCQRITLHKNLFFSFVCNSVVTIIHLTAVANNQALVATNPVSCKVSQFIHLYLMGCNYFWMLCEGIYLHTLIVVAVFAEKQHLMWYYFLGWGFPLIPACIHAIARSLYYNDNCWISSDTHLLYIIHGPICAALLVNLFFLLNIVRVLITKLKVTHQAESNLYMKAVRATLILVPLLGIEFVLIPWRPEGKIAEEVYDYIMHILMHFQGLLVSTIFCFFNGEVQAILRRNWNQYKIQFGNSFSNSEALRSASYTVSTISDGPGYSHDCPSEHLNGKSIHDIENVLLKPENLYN
Human CGRP Receptor, sequence (O60894 27-148): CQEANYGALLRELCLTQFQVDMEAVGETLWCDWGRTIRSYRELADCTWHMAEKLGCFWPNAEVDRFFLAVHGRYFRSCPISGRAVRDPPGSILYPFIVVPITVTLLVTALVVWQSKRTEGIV

Compound | IC50
Cc1cc(CC(OC(=O)N2CCC(c3cc4ccccc4[nH]c3=O)CC2)c2ncc3n2CCN(Cc2ccccc2)C3)cc2cn[nH]c12 (racemic) [Example 1, (±)-1-(7-Benzyl-5,6,7,8-tetrahydroimidazo[1,5-c]pyrazin-3-yl)-2-(7-methyl-1H-indazol-5-yl)ethyl 4-(2-oxo-1,2-dihydroquinolin-3-yl)piperidine-1-carboxylate] | 260 pM
CCN1CCn2c(cnc2C(Cc2cc(C)c3[nH]ncc3c2)OC(=O)N2CCC(c3cc4ccccc4[nH]c3=O)CC2)C1 (racemic) [Example 2, (±)-1-(7-ethyl-5,6,7,8-tetrahydroimidazo[1,5-a]pyrazin-3-yl)-2-(7-methyl-1H-indazol-5-yl)ethyl 4-(2-oxo-1,2-dihydroquinolin-3-yl)piperidine-1-carboxylate] | 1700 pM
Cc1cc(CC(OC(=O)N2CCC(c3cc4ccccc4[nH]c3=O)CC2)c2ncc3n2CCNC3)cc2cn[nH]c12 (racemic) [Example 3, (±)-2-(7-methyl-1H-indazol-5-yl)-1-(5,6,7,8-tetrahydroimidazo[1,5-a]pyrazin-3-yl)ethyl 4-(2-oxo-1,2-dihydroquinolin-3-yl)piperidine-1-carboxylate] | 2950 pM
Cc1cc(CC(OC(=O)N2CCC(c3cc4ccccc4[nH]c3=O)CC2)c2ncc3n2CCN(C2CCCCC2)C3)cc2cn[nH]c12 (racemic) [Example 4, (±)-1-(7-Cyclohexyl-5,6,7,8-tetrahydroimidazo[1,5-a]pyrazin-3-yl)-2-(7-methyl-1H-indazol-5-yl)ethyl 4-(2-oxo-1,2-dihydroquinolin-3-yl)piperidine-1-carboxylate] | 220 pM
